Source: PubChem BioAssay (NCI)
Several values for one entry are separate records, joined by “and”; a condition that tells them apart may be missing. Equal entries are not always repeated.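 Protocol summary: plate cells (96-well), add compound at 5 concentrations, incubate 48 h, interpolate endpoints linearly. GI50: concentration for 50% inhibition of growth. The concentration for full growth arrest is given as TGI.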

Experiments:
Test in all cases: NCI anticancer screen, dose series, 48 h
SK-MEL-2 melanoma = test system: SK-MEL-2 melanoma
NCI-H522 lung = test system: NCI-H522 lung
NCI-H226 lung = test system: NCI-H226 lung
MCF7 breast = test system: MCF7 breast
PC-3 prostate = test system: PC-3 prostate
RPMI-8226 leukemia = test system: RPMI-8226 leukemia
HCC-2998 colon = test system: HCC-2998 colon
RXF 393 renal = test system: RXF 393 renal
CCRF-CEM leukemia = test system: CCRF-CEM leukemia
SF-295 CNS = test system: SF-295 CNS
SNB-19 CNS = test system: SNB-19 CNS
SR leukemia = test system: SR leukemia
HCT-15 colon = test system: HCT-15 colon
COLO 205 colon = test system: COLO 205 colon
OVCAR-8 ovarian = test system: OVCAR-8 ovarian
MDA-MB-231 breast = test system: MDA-MB-231 breast
MOLT-4 leukemia = test system: MOLT-4 leukemia
HL-60(TB) leukemia = test system: HL-60(TB) leukemia
TK-10 renal = test system: TK-10 renal
M14 melanoma = test system: M14 melanoma
HCT-116 colon = test system: HCT-116 colon
OVCAR-5 ovarian = test system: OVCAR-5 ovarian
CAKI-1 renal = test system: CAKI-1 renal
NCI/ADR-RES ovarian = test system: NCI/ADR-RES ovarian
NCI-H460 lung = test system: NCI-H460 lung
HOP-92 NSCLC = test system: HOP-92 NSCLC
K-562 leukemia = test system: K-562 leukemia
HT29 colon = test system: HT29 colon
U251 CNS = test system: U251 CNS
SF-268 CNS = test system: SF-268 CNS
UO-31 renal = test system: UO-31 renal
MALME-3M melanoma = test system: MALME-3M melanoma
786-0 renal = test system: 786-0 renal
BT-549 breast = test system: BT-549 breast
MDA-MB-435 = test system: MDA-MB-435
OVCAR-3 ovarian = test system: OVCAR-3 ovarian
UACC-257 melanoma = test system: UACC-257 melanoma
KM12 colon = test system: KM12 colon
NCI-H23 lung = test system: NCI-H23 lung
ACHN renal = test system: ACHN renal
OVCAR-4 ovarian = test system: OVCAR-4 ovarian
HOP-62 NSCLC = test system: HOP-62 NSCLC
SN12C renal = test system: SN12C renal
DU-145 prostate = test system: DU-145 prostate
EKVX NSCLC = test system: EKVX NSCLC
T-47D breast = test system: T-47D breast
MDA-N = test system: MDA-N
SW-620 colon = test system: SW-620 colon
A549 NSCLC = test system: A549 NSCLC
SK-MEL-5 melanoma = test system: SK-MEL-5 melanoma
A498 renal = test system: A498 renal
SK-MEL-28 melanoma = test system: SK-MEL-28 melanoma
SK-OV-3 ovarian = test system: SK-OV-3 ovarian
HS 578T breast = test system: HS 578T breast
LOX IMVI melanoma = test system: LOX IMVI melanoma
UACC-62 melanoma = test system: UACC-62 melanoma
IGROV1 ovarian = test system: IGROV1 ovarian
SNB-75 CNS = test system: SNB-75 CNS
SF-539 CNS = test system: SF-539 CNS

Compound: CC(NO)/C(=N/O)c1ccco1 (stereo unspecified)
- TGI (SK-MEL-2 melanoma): > 10 µM
- TGI (NCI-H522 lung): > 10 µM
- TGI (NCI-H226 lung): > 10 µM
- TGI (MCF7 breast): > 10 µM
- TGI (PC-3 prostate): > 10 µM
- TGI (RPMI-8226 leukemia): > 10 µM
- TGI (HCC-2998 colon): > 10 µM
- TGI (RXF 393 renal): > 10 µM
- TGI (CCRF-CEM leukemia): > 10 µM
- TGI (SF-295 CNS): > 10 µM
- TGI (SNB-19 CNS): > 10 µM
- TGI (SR leukemia): > 10 µM
- TGI (HCT-15 colon): > 10 µM
- TGI (COLO 205 colon): > 10 µM
- TGI (OVCAR-8 ovarian): > 10 µM
- TGI (MDA-MB-231 breast): > 10 µM
- TGI (MOLT-4 leukemia): > 10 µM
- TGI (HL-60(TB) leukemia): > 10 µM
- TGI (TK-10 renal): > 10 µM
- TGI (M14 melanoma): > 10 µM
- TGI (HCT-116 colon): > 10 µM
- TGI (OVCAR-5 ovarian): > 10 µM
- TGI (CAKI-1 renal): > 10 µM
- TGI (NCI/ADR-RES ovarian): > 10 µM
- TGI (NCI-H460 lung): > 10 µM
- TGI (HOP-92 NSCLC): > 10 µM
- TGI (K-562 leukemia): > 10 µM
- TGI (HT29 colon): > 10 µM
- TGI (U251 CNS): > 10 µM
- TGI (SF-268 CNS): > 10 µM
- TGI (UO-31 renal): > 10 µM
- TGI (MALME-3M melanoma): > 10 µM
- TGI (786-0 renal): > 10 µM
- TGI (BT-549 breast): > 10 µM
- TGI (MDA-MB-435): > 10 µM
- TGI (OVCAR-3 ovarian): > 10 µM
- TGI (UACC-257 melanoma): > 10 µM
- TGI (KM12 colon): > 10 µM
- TGI (NCI-H23 lung): > 10 µM
- TGI (ACHN renal): > 10 µM
- TGI (OVCAR-4 ovarian): > 10 µM
- TGI (HOP-62 NSCLC): > 10 µM
- TGI (SN12C renal): > 10 µM
- TGI (DU-145 prostate): > 10 µM
- TGI (EKVX NSCLC): > 10 µM
- TGI (T-47D breast): > 10 µM
- TGI (MDA-N): > 10 µM
- TGI (SW-620 colon): > 10 µM
- TGI (A549 NSCLC): > 10 µM

Compound: C=C(CN1CCN(c2cccc(C(F)(F)F)n2)CC1)c1ccc(C(=O)Nc2ccccc2N)cc1
- GI50 (SK-MEL-5 melanoma): 0.403 µM and 0.397 µM
- GI50 (SK-MEL-2 melanoma): 5.65 µM and 0.851 µM
- TGI (SK-MEL-2 melanoma): 41.5 µM and > 58 µM
- GI50 (NCI-H522 lung): 1.11 µM and 0.896 µM
- TGI (NCI-H522 lung): > 100 µM and 38.1 µM
- GI50 (A498 renal): 0.875 µM and 0.261 µM
- GI50 (SK-MEL-28 melanoma): 2.08 µM and 0.422 µM
- TGI (SK-MEL-28 melanoma): > 100 µM and 15.5 µM
- GI50 (NCI-H226 lung): 13.4 µM and 20.9 µM
- TGI (NCI-H226 lung): > 100 µM
- GI50 (MCF7 breast): 0.349 µM and 0.293 µM
- TGI (MCF7 breast): > 100 µM
- GI50 (PC-3 prostate): 0.42 µM and 0.484 µM
- TGI (PC-3 prostate): > 100 µM
- GI50 (RPMI-8226 leukemia): 0.534 µM and 0.277 µM
- TGI (RPMI-8226 leukemia): 4.19 µM and 1.33 µM
- GI50 (HCC-2998 colon): 9.63 µM
- TGI (HCC-2998 colon): > 100 µM
- GI50 (RXF 393 renal): 0.672 µM and 2.12 µM
- TGI (RXF 393 renal): 26.1 µM and > 100 µM
- GI50 (CCRF-CEM leukemia): 0.278 µM
- TGI (CCRF-CEM leukemia): > 100 µM
- GI50 (SK-OV-3 ovarian): 2.55 µM and 0.634 µM
- TGI (SK-OV-3 ovarian): 42.4 µM and 21.2 µM
- GI50 (SF-295 CNS): 0.387 µM and 0.191 µM
- GI50 (SNB-19 CNS): 0.65 µM and 0.708 µM
- TGI (SNB-19 CNS): 29.3 µM and 23.5 µM
- GI50 (HS 578T breast): 0.448 µM and 0.194 µM
- GI50 (SR leukemia): > 39.1 µM
- TGI (SR leukemia): > 100 µM
- GI50 (HCT-15 colon): 0.918 µM and 0.404 µM
- TGI (HCT-15 colon): > 100 µM
- GI50 (COLO 205 colon): 3.34 µM and 0.907 µM
- GI50 (OVCAR-8 ovarian): 4.25 µM and 1.09 µM
- TGI (OVCAR-8 ovarian): 55.4 µM and > 79 µM
- GI50 (MDA-MB-231 breast): 4.63 µM and 1.02 µM
- TGI (MDA-MB-231 breast): 34.2 µM and > 72.7 µM
- GI50 (MOLT-4 leukemia): 0.855 µM and 0.478 µM
- TGI (MOLT-4 leukemia): > 100 µM
- GI50 (HL-60(TB) leukemia): 0.322 µM and 0.297 µM
- TGI (HL-60(TB) leukemia): 1 µM and 2.13 µM
- TGI (TK-10 renal): > 100 µM and 35.4 µM
- GI50 (M14 melanoma): 0.966 µM and 0.436 µM
- TGI (M14 melanoma): > 100 µM
- GI50 (HCT-116 colon): 0.537 µM and 0.402 µM
- TGI (HCT-116 colon): > 100 µM
- GI50 (OVCAR-5 ovarian): 0.712 µM and 3.63 µM
- TGI (OVCAR-5 ovarian): > 100 µM
- GI50 (CAKI-1 renal): 0.512 µM and 0.52 µM
- TGI (CAKI-1 renal): > 100 µM and 25.7 µM
- GI50 (NCI/ADR-RES ovarian): 0.641 µM and 0.4 µM
- TGI (NCI/ADR-RES ovarian): > 100 µM
- GI50 (NCI-H460 lung): 0.64 µM and 0.37 µM
- TGI (NCI-H460 lung): > 100 µM
- GI50 (HOP-92 NSCLC): 2 µM
- TGI (HOP-92 NSCLC): 43.9 µM
- GI50 (K-562 leukemia): 0.623 µM
- TGI (K-562 leukemia): > 100 µM
- GI50 (HT29 colon): 0.565 µM and 0.341 µM
- GI50 (U251 CNS): 1.16 µM and 0.429 µM
- TGI (U251 CNS): 34.4 µM and 12.8 µM
- GI50 (SF-268 CNS): 1.13 µM and 0.578 µM
- TGI (SF-268 CNS): 31.2 µM and > 100 µM
- GI50 (UO-31 renal): 2.76 µM and 0.465 µM
- TGI (UO-31 renal): 72.2 µM and > 76.6 µM
- GI50 (LOX IMVI melanoma): 1.5 µM and 0.496 µM
- TGI (LOX IMVI melanoma): > 100 µM
- GI50 (MALME-3M melanoma): 1.06 µM and 0.338 µM
- TGI (MALME-3M melanoma): > 100 µM and 28.2 µM
- GI50 (786-0 renal): 1.97 µM and 0.705 µM
- TGI (786-0 renal): 70 µM and 14 µM
- GI50 (BT-549 breast): 0.918 µM and 0.34 µM
- TGI (BT-549 breast): 88.4 µM and > 100 µM
- GI50 (MDA-MB-435): 0.27 µM and 0.205 µM
- TGI (MDA-MB-435): 2.26 µM and 0.767 µM
- GI50 (OVCAR-3 ovarian): 0.258 µM and 0.261 µM
- TGI (OVCAR-3 ovarian): 1.12 µM and 0.982 µM
- TGI (UACC-257 melanoma): > 100 µM
- GI50 (KM12 colon): 0.668 µM and 0.455 µM
- TGI (KM12 colon): > 100 µM
- GI50 (NCI-H23 lung): 14.1 µM and 1.8 µM
- TGI (NCI-H23 lung): > 100 µM
- TGI (ACHN renal): > 100 µM
- GI50 (UACC-62 melanoma): 0.97 µM and 0.51 µM
- TGI (UACC-62 melanoma): > 100 µM
- GI50 (OVCAR-4 ovarian): 8.37 µM and 1.41 µM
- TGI (OVCAR-4 ovarian): > 100 µM
- GI50 (HOP-62 NSCLC): 2.21 µM and 0.877 µM
- TGI (HOP-62 NSCLC): 21.4 µM and 7.51 µM
- GI50 (SN12C renal): 3.79 µM and 0.797 µM
- TGI (SN12C renal): > 100 µM
- GI50 (DU-145 prostate): 1.46 µM and 0.634 µM
- TGI (DU-145 prostate): > 100 µM
- GI50 (IGROV1 ovarian): 2.01 µM and 0.365 µM
- TGI (IGROV1 ovarian): 26.9 µM and 7.29 µM
- GI50 (EKVX NSCLC): 24.3 µM and 2.73 µM
- TGI (EKVX NSCLC): > 100 µM
- GI50 (SNB-75 CNS): 0.673 µM and 0.21 µM
- TGI (SNB-75 CNS): 12.2 µM and 2.19 µM
- GI50 (T-47D breast): 3.01 µM and 0.616 µM
- TGI (T-47D breast): > 100 µM
- GI50 (SF-539 CNS): 0.978 µM and 0.331 µM
- TGI (SF-539 CNS): 16.8 µM and 2.05 µM
- GI50 (SW-620 colon): 0.528 µM and 0.416 µM
- TGI (SW-620 colon): > 100 µM
- GI50 (A549 NSCLC): 3.33 µM and 0.39 µM
- TGI (A549 NSCLC): > 100 µM
